{"source": "patent US20020032182A1", "about": "“Method of treating hypersomnia sleep disturbance or insomnia sleep disturbance that is secondary to another condition” (priority 1997, published 2002)", "key": {"[1]": {"test_system": "severe dysthymia", "assay": "Patient No. 3 treatment of severe dysthymia", "type": "in vivo, human", "excerpt": "Patient No. 3 was a divorced person experiencing chronic suicidal depression for about 15 years. For as long as the patient can remember, they have had episodic, mild-to-moderate mood swings. Approximately 15 years ago, their condition worsened and they were depressed almost daily. Their thoughts were slowed down, they felt intensely sad, guilty, worthless, confused, and desperate. Over a period of approximately two years they underwent therapy with a social worker and psychotherapy with a psychiatrist, with little positive results. No pharmaco-therapy was involved in either of these treatments. Initially, Patient No. 3 met with the inventor and identified a childhood source as a partial cause of their depression, low self-esteem and dysfunctional thinking. Although they appreciated the insights gained through the psychoanalysis/psychotherapy with the inventor, their depression persisted unabated. They were rejected by their girlfriend and became frighteningly suicidal. […] Within six months they developed a tolerance to the drug and it was increased to 100 mg per day with no effect. They stopped […]® and started bupropion 100 mg b.i.d and lithium 300 mg t.i.d. Bupropion is an aminoketone antidepressant, and lithium is a metal used to treat bipolar disorder. […] Their condition was desperate and life-threatening."}, "[2]": {"test_system": "alcohol craving", "assay": "Patient No. 1 alcohol craving while taking chromium picolinate alone", "type": "in vivo, human", "excerpt": "During the later stages of the study described above, when Patient No. 1 was taking chromium picolinate alone, they also noticed a change in their ability to tolerate alcohol. Both of their parents were alcoholics so they guarded carefully against this outcome by drinking infrequently.\nDespite this effort, […] often experienced intense cravings for alcohol. Prior to […] treatment with chromium, when […] consumed alcohol, […] could only drink it by gulping it. […] experienced rapid intoxication, unpleasant feelings, and a severe hangover the next day. […] […] also observed that […] could drink in moderation, without having a severe hangover the next day."}, "[3]": {"test_system": "pre-menstrual syndrome (PMS) and major depression", "assay": "Patient No. 4 treatment of major depression and self-rating of pre-menstrual syndrome symptoms", "type": "in vivo, human", "protocol": "Patient No. 4 was a person who has struggled to overcome a wide variety of psychiatric symptoms, two of which are depression and pre-menstrual syndrome (PMS). After several treatments, it was determined that a combination of paroxetine 20 mg t.i.d. and lithium 300 mg t.i.d. diminished their symptoms of obsessive-compulsive disorder, depression, hypomania and PMS.\nIn FIGS. 6-8 the abbreviations for each symptom on the graphs may be translated as follows:\nPatient No. 4's formal diagnoses were Multiple Personality Disorder, Obsessive-Compulsive Disorder, Major Depression Disorder, Alcoholism (recovering), and Pre-Menstrual Syndrome (PMS).\nSet forth below in Table 1 are the research criteria set forth in the Diagnostic and Statistical Manual of Mental Disorders, Forth edition, published by the American Psychiatric Association for Pre-Menstrual Dysphoric Disorder, or Pre-Menstrual Syndrome.\nThey described a typical menses as follows. They were usually moderately to severely depressed for at least two days during the week before their menses. They had sudden mood swings. One moment they would be crying and the next they would be laughing wildly, or they would have sudden outbursts of anger. They were markedly tense and would fidget constantly. They tired easily and lacked energy. They could barely drag themself out of bed each morning. They craved carbohydrates and often would eat several doughnuts, whole cakes, or boxes of cookies. They slept little, and for two or three nights they would have night sweats that drenched their bed. They also experienced back cramps, bloating and pains in their joints and muscles. They had trouble concentrating and was unable to do life's simplest chores. Their PMS interfered with their ability to function. They lost interest in their favorite hobby, reading."}, "[4]": {"test_system": "depression in the form of dysthymia", "assay": "Patient No. 1 weekly blinded component study with Beck Scale and SCL-90 Scale self-rating", "type": "in vivo, human"}, "[5]": {"assay": "Plasma chromium level", "type": "in vivo, human", "protocol": "Most preferred dosage ranges of chromium are those doses sufficient to deliver from about 4.5 to about 6 μg of chromium per kilogram (kg) of body weight. This dosage range is generally several fold greater than that contained in most commercially available multi-vitamin and mineral preparations. This amount results in a plasma chromium level between 0.9 μg/liter to 2.1 μg/liter. The plasma level will vary depending on the level of exercise, i.e., the more one exercises, the more chromium is required to maintain plasma levels.\nCommercially available tubes for the collection of blood can contain significant amounts of chromium. To avoid contamination, plasma levels of chromium should be determined from blood collected in heparinized or EDTA tubes."}, "[6]": {"test_system": "depression in the form of dysthymia", "assay": "Patient No. 1 weekly blinded component study with Beck Scale and SCL-90 Scale self-rating", "type": "in vivo, human", "conditions": "for patient-reported symptoms during week: component taken along with sertraline 125 mg qd", "protocol": "Patient No. 1 was a person who, after a series of psychoanalysis/psychotherapy sessions, was diagnosed as suffering from depression in the form of dysthymia. Patient No. 1 experienced a chronic low mood with markedly diminished interest and pleasure in all activities including work, eating, and sexual relations.\nInitially, Patient No. 1 was treated only with the known antidepressant sertraline (sold under the registered trademark ZOLOFT®). Sertraline is a selective serotonin reuptake inhibitor. Sertraline was administered in amounts from 50 to 150 mg qd (per day); the ideal dose for this patient was ultimately determined to be 125 mg qd (per day).\nIndependent of the sertraline treatments, the patient began taking a vitamin and mineral supplement that included a series of components. […] As such improvement was unexpected, a study of the components of the mineral preparation was undertaken. During this study, Patient No. 1 stopped taking the composite preparation.\nIn this study, Patient No. 1 took one component of the preparation at a time according to a schedule of one pill a day for five days, Monday through Friday. At the end of each week, they filled out two self-rating scales that are used in the diagnosis and monitoring of depression. These scales are the Beck Scale and the SCL-90 Scale, both of which are well known in the field of psychiatry and psychotherapy. Patient No. 1 continued to take sertraline at 125 mg per day. During the study, Patient No. 1 was not informed of what they were taking.\nThe series of events described in the above example are more fully set forth in the graphs in FIGS. 1 and 2. FIG. 1 is a bar graph displaying the scores on the Beck Scale, a self-rating scale for depression, at the end of each weekly treatment.\nFIG. 2 is a bar graph of the total score on the SCL-90 Scale. The SCL-90 is composed of 90 questions. It is designed to measure symptoms of somatization, obsessive-compulsive behavior, interpersonal sensitivity, depression, anxiety, hostility, phobic anxiety, paranoid ideation, and psychoticism. It is noted that the grand total of scores on each Friday closely parallels the results of the Beck Scale."}, "[7]": {"test_system": "pre-menstrual syndrome (PMS)", "assay": "Patient No. 2 pre-menstrual syndrome observation", "type": "in vivo, human", "conditions": "chromium 200 μg per day", "protocol": "They said that they had less carbohydrate craving during the week before, that they were less irritable, that their dysphoria was relieved, and that their usual cramps were non-existent. Thus, an aspect of the present invention includes the treatment of pre-menstrual syndrome (PMS), or dysmenorrhea (problematic and/or painful menses), comprising administering chromium in a preferred dose of 200 μg per day to a patient in need thereof."}, "[8]": {"test_system": "dysthymia", "assay": "Patient No. 2 weekly component study with Beck Scale and SCL-90 Scale", "type": "in vivo, human", "protocol": "Patient No. 2 was a single person. They are the child of Patient No. 1. They complained of weight gain, hyperphagia, hypersomnia, loss of interest in sex, irritability and an inability to concentrate. They stated that they had been seeing psychotherapists since they were […], but had no success in dealing with their depression. They were also diagnosed as having dysthymia.\nThey had taken sertraline in the amount of 50 mg qd with little help. This dosage was increased to 100 mg qd which proceeded for a period of five weeks. […] They were not as weepy and their outlook was less negative. Their interest in sex was increased. Their appetite remained the same.\nPatient No. 2 then began a similar study as that described above for Patient No. 1. For the first week, they took one vitamin C tablet daily along with 100 mg of sertraline. Their depression appeared to worsen as reflected by their grand total Beck score of +12 and their SCL-90 of +4 as more fully portrayed on the FIG. 4.\nFor Patient No. 2, FIG. 4 presents Patient No. 2's Beck Scale total scores, and FIG. 5 presents a graph of the four subscales of somatization, obsessive-compulsive, depression, and anxiety on the SCL-90 Scale."}, "[9]": {"test_system": "pre-menstrual syndrome (PMS)", "conditions": "women with PMS treated with fluoxetine; cited from earlier work"}, "[10]": {"conditions": "sertraline only, 50 to 150 mg qd"}, "[11]": {"conditions": "sertraline 100 mg with one vitamin C tablet daily, first week"}}, "note": "“Also recorded” adds a separate entry of the source. Counter-ions that a name gives are not always drawn."}
{"compound": "chromium picolinate", "values": [{"measurement": "overall response", "setting": "[1]; chromium 200 μg twice daily, 400 μg per day", "result": "marked improvement"}, {"measurement": "alcohol cravings", "setting": "[2]", "result": "significantly diminished alcohol cravings"}, {"measurement": "signs or symptoms of PMS", "setting": "[3]; chromium 200 μg b.i.d. with paroxetine 20 mg t.i.d. and lithium 300 mg t.i.d.", "result": "completely without signs or symptoms of PMS, except for breast swelling"}, {"measurement": "patient-reported condition on chromium alone", "setting": "[4]; 400 μg chromium per day (200 μg b.i.d.), sertraline discontinued", "result": "their sleep was much improved; also recorded: felt the best they had felt in a decade"}, {"measurement": "time to improvement after dose increase", "setting": "[4]; crisis period at work, 200 μg chromium t.i.d.", "result": "Within an hour, they noticed immediate improvement"}, {"measurement": "plasma chromium level", "setting": "[5]; Patient No. 1, 400 μg chromium per day as chromium picolinate, sertraline discontinued", "result": 0.9, "unit": "µg/L"}, {"measurement": "plasma chromium", "setting": "[5]; Patient No. 2, four days after resuming chromium picolinate 200 μg per day", "result": 0.8, "unit": "µg/L"}, {"measurement": "potential adverse side effect", "setting": "[6]; 200 μg chromium from chromium picolinate taken late in the day", "result": "their sleep was disturbed"}, {"measurement": "patient-reported symptoms during week", "setting": "[6]", "result": "dramatic, certain and immediate relief of symptoms"}, {"measurement": "total Beck score at the end of the week", "setting": "[6]; one pill of component a day for five days along with sertraline 125 mg qd (chromium 200 μg per day)", "result": 0}, {"measurement": "pre-menstrual syndrome / menses symptoms", "setting": "[7]", "result": "their menses was less problematic"}, {"measurement": "SCL-90 score", "setting": "[8]; 200 μg chromium per day with sertraline 100 mg per day, second week", "result": "definite improvement"}, {"measurement": "response after resuming treatment", "setting": "[8]; chromium picolinate 200 μg per day", "result": "Within two days they felt better and had no symptoms"}, {"measurement": "patient-reported symptoms during week", "setting": "[8]; component taken along with sertraline 100 mg per day", "result": "their appetite was less"}, {"measurement": "Beck Scale estimated via telephone interview", "setting": "[8]; resumed chromium picolinate 200 μg per day, sertraline continued", "result": "+2"}]}
{"compound": "CC(NC(C)(C)C)C(=O)c1cccc(Cl)c1", "note": "(centres unmarked) [bupropion]", "values": [{"measurement": "adverse effect leading to discontinuation", "setting": "[1]; bupropion 100 mg b.i.d. with lithium 300 mg t.i.d.", "result": "developed involuntary muscle twitches"}]}
{"compound": "CNCCC(Oc1ccc(C(F)(F)F)cc1)c1ccccc1", "note": "(centres unmarked) [fluoxetine]", "values": [{"measurement": "women suffering from PMS without a positive response", "setting": "[9]", "result": "~40", "unit": "%"}]}
{"compound": "Fc1ccc([C@@H]2CCNC[C@H]2COc2ccc3c(c2)OCO3)cc1", "note": "[paroxetine]", "values": [{"measurement": "change in severity of PMS symptoms", "setting": "[3]; paroxetine", "result": "reduced the severity of their symptoms of PMS from severe to moderately severe"}, {"measurement": "patient rating of PMS", "setting": "[3]; paroxetine 20 mg t.i.d. and lithium 300 mg t.i.d.", "result": "moderate to severe and barely tolerable"}, {"measurement": "depression", "setting": "[3]; resumed lithium 300 mg t.i.d. and paroxetine 40 mg per day", "result": "their depression was refractory"}]}
{"compound": "CN[C@H]1CC[C@@H](c2ccc(Cl)c(Cl)c2)c2ccccc21", "note": "[sertraline, reference compound]", "values": [{"measurement": "total Beck score", "setting": "[6]; sertraline 125 mg each day for five days with vitamin C placebo", "result": "+10"}, {"measurement": "symptoms in week prior to study", "setting": "[6]; sertraline 125 mg qd alone", "result": "loss of energy, disturbed sleep, and awaking tired"}, {"measurement": "relief of symptoms of dysthymia", "setting": "[6]; [10]", "result": "provided some relief of the symptoms of dysthymia"}, {"measurement": "side effects", "setting": "[6]; [10]", "result": "made the patient sluggish in their daily activities and made their thinking cloudy, or fuzzy"}, {"measurement": "effect on depression", "setting": "[8]; sertraline 50 mg qd", "result": "little help"}, {"measurement": "effect on depression", "setting": "[8]; sertraline 100 mg qd for five weeks", "result": "still symptomatic of depression, but felt better"}, {"measurement": "SCL-90 score", "setting": "[8]; [11]", "result": "+4"}, {"measurement": "grand total Beck score", "setting": "[8]; [11]", "result": "+12"}]}
{"compound": "CN(C)CCC=C1c2ccccc2CCc2ccccc21", "note": "[ELAVIL, amitriptyline HCl]", "values": [{"measurement": "effect on depression", "setting": "[1]; 50 mg per day", "result": "helped them sleep"}, {"measurement": "effect on depression", "setting": "[1]; increased to 100 mg per day after tolerance", "result": "no effect"}]}
{"compound": "[Cr]", "note": "[chromium]", "values": [{"measurement": "time to relief of symptoms", "setting": "[1]; chromium picolinate 200 μg b.i.d. with sertraline 100 mg qd", "result": "relief of symptoms within four to five days"}]}
{"compound": "[Se]", "note": "[selenium]", "values": [{"measurement": "patient-reported symptoms during week", "setting": "[6]", "result": "felt agitated"}]}
